Key:
Miapaca-2 cells = assay: MiaPaca-2 cell proliferation assay (1), resazurin, 96-well; assay type: cell-based; settings: Homo sapiens, MIA PaCa-2, inhibition of cell proliferation
Method in brief: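 Three thousand cells per well in DMEM with 10% FBS and 2.5% horse serum exposed to serially diluted compound in triplicate for 67-72 h at 37 °C, 5% CO2. Viability by resazurin (additional 5-6 h), fluorescence ex 540/em 600 nm; IC50 calculated.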

B-Raf kinase = target: T1, B-Raf kinase (Homo sapiens, UniProt P15056); assay: Biochemical assay for B-Raf.2 (coupled pyruvate kinase/lactate dehydrogenase); settings: read-out: BRAF.2 IC50
T1 construct: GST (N); purchased Sigma
T1 sequence (P15056 416-766): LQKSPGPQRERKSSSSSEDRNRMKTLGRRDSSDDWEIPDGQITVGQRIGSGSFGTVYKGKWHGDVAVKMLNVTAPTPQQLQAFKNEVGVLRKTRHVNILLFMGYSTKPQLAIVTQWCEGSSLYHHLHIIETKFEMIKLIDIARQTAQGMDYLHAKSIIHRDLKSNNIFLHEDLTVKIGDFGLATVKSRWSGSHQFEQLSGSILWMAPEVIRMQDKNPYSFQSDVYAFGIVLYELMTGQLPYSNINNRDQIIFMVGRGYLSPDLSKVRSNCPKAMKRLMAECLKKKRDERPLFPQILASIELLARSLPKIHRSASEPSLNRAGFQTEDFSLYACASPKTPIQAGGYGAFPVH
Experimental: Biochemical Assay for B-Raf.2
Activity of B-Raf kinase (SEQ. ID NO: 2) was determined spectroscopically using a coupled pyruvate kinase/lactate dehydrogenase assay that continuously monitors the ATP hydrolysis-dependent oxidation of NADH (e.g., Schindler et al., Science, 2000, 289, 1938-1942). Assays were conducted in 384-well plates (25 μL final volume) using 2 nM B-Raf (Sigma), 1.5 units pyruvate kinase, 2.1 units lactate dehydrogenase, 1 mM phosphoenol pyruvate, 0.7 mM NADH, 50 nM MEK (SignalChem), and 1 mM ATP in assay buffer (100 mM Tris, pH 7.5, 15 mM MgCl2, 0.5 mM DTT, 0.1% octyl-glucoside, 0.002% (w/v) BSA, and 0.002% Triton X-100). Inhibition of B-Raf was measured by adding serial diluted test compound (final assay concentration of 1% DMSO). A decrease in absorption at 340 nm was monitored hourly for 4 h at 30° C. on a multi-mode microplate reader (BioTek). The reaction rate was calculated using the 2 to 3 h time frame. The reaction rate at each concentration of compound was converted to percent inhibition using controls (i.e., reaction with no test compound and reaction with a known inhibitor) and IC50 values were calculated by fitting a four-parameter sigmoidal curve to the data using Prism (GraphPad software).

H2405 cells = assay: H2405 cell proliferation assay (2), resazurin, 384-well; assay type: cell-based; settings: Homo sapiens, NCI-H2405, inhibition of cell proliferation, 67-72 h
Experimental: H2405 Cell Proliferation Assay (2)
H2405 cells (catalog #CRL-5994) are obtained from the American Type Culture Collect (ATTC, Manassas, VA). Briefly, cells were grown in RPMI 1640 supplemented with 5% characterized fetal bovine serum (Invitrogen, Carlsbad, CA) and 1% Penicillin/Streptomycin/L-Glutamine at 37° C., 5% CO2, and 95% humidity. Cells are expanded until reaching 70-95% confluency at which point they are sub-cultured or harvested for assay use. A serial dilution of test compound is dispensed into a 384-well black clear bottom plate in triplicate. Seven hundred fifty cells are added per well in 50 μL complete growth medium in the 384-well plate. Plates are incubated for 67-72 h at 37° C., 5% CO2, and 95% humidity. At the end of the incubation, 10 μL of a 440 μM solution of resazurin (Sigma, St. Louis, MO) in PBS is added to each well of the plate and plates are incubated for an additional 5-6 h at 37° C., 5% CO2, and 95% humidity. Plates are read on a Synergy2 or equivalent reader (Biotek, Winooski VT) using an excitation of 540 nm and an emission of 600 nm. Data is analyzed using Prism software (GraphPad, San Diego, CA) to calculate IC50 values

WM3629 cells = assay: WM3629 cell proliferation assay (1), resazurin, 96-well; assay type: cell-based; settings: inhibition of cell proliferation
Experimental: WM3629 Cell Proliferation Assay (1)
WM3629 cells (#WM3629-01-0001) are obtained from Rockland Immunochemicals Inc (Gilbertsville, PA). Briefly, cells were grown in MCDB 153 medium (Sigma, #M7403, St. Louis, MO) supplemented with 20% Leibovitz's L-15 (ThermoFisher #11415-064, Waltham, MA), 2% heat inactivated fetal bovine serum (ThermoFisher, #A3840001, Waltham, MA), 5 μg/mL Insulin (Bovine Pancreas) (Sigma, #I0516, St. Louis, MO), 1.68 mM Calcium Chloride (Sigma, #C-34006, St. Louis, MO) and 1% Penicillin/Streptomycin/L-Glutamine (ThermoFisher #10378016, Waltham, MA) at 37° C., 5% CO2, and 95% humidity. Cells are expanded until reaching 70-95% confluency at which point they are subcultured or harvested for assay use. A serial dilution of test compound is dispensed into a 96-well black clear bottom plate in triplicate. Four thousand five hundred cells are added per well in 200 μL complete growth medium in the 96-well plate. Plates are incubated for 67-72 hours at 37° C., 5% CO2, and 95% humidity. At the end of the incubation, 40 μL of a 440 μM solution of resazurin (Sigma, #199303, St. Louis, MO) in PBS is added to each well of the plate and plates are incubated for an additional 6-7 hours at 37° C., 5% CO2, and 95% humidity. Plates are read on a Synergy2 or equivalent reader (Biotek, Winooski VT) using an excitation of 540 nm and an emission of 600 nm. Data is analyzed using Prism software (GraphPad, San Diego, CA) to calculate IC50 values.

Row | Compound | IC50 (Miapaca-2 cells) [µM] | IC50 (B-Raf kinase) [µM] | IC50 (H2405 cells) [µM] | IC50 (WM3629 cells) [µM]
1 | Cc1cc(F)c(NC(=O)NCCC2(C)CC2)cc1-c1cc(OCCO)nc(-c2ccnc3[nH]ncc23)c1 [Example 87] | 1 to 10 |  |  | 
2 | Cc1cc(F)c(NC(=O)NCC[C@@H]2CCO2)cc1-c1cc(OCCO)nc(-c2ccnc3[nH]ncc23)c1 [Example 89] | 1 to 10 |  |  | 
3 | COC(C)(C)CCNC(=O)Nc1cc(-c2cc(OCCO)nc(-c3ccnc4[nH]ccc34)c2)c(C)cc1F [Example 90] | 1 to 10 |  |  | 
4 | COC(C)(C)CCNC(=O)Nc1cc(-c2cc(OCCO)nc(-c3ccnc4[nH]ncc34)c2)c(C)cc1F [Example 91] | 1 to 10 |  |  | 
5 | CNC(=O)c1cc(-c2cncc(-c3cc(NC(=O)N4CC[C@H](C(F)(F)F)C4)ccc3C)c2)ncn1 [Example 220] | 1 to 10 | 0.1 to 0.5 |  | 
6 | COC(=O)Nc1cc(-c2cncc(-c3cc(NC(=O)N4CC[C@H](C(F)(F)F)C4)ccc3C)c2)ncn1 [Example 224] |  | ≤ 0.1 | ≤ 0.1 | ≤ 0.1
7 | CNC(=O)c1cc(-c2cc(-c3cc(NC(=O)N4CC[C@H](C(C)C)C4)ccc3C)ccn2)ccn1 [Example 225] |  | 0.1 to 0.5 |  | ≤ 0.1
8 | CNC(=O)c1cc(-c2cncc(-c3cc(NC(=O)N4CC[C@H](C(C)C)C4)ccc3C)c2)ncn1 [Example 226] |  | 0.5 to 1 |  | 
9 | CNC(=O)c1cc(-c2cncc(-c3cc(NC(=O)N4CC[C@H](C(C)C)C4)ccc3C)c2)ccn1 [Example 229] |  | 0.1 to 0.5 | 0.5 to 1 | 

Continued, in another order:

Row | IC50 (Miapaca-2 cells) [µM] | IC50 (B-Raf kinase) [µM] | IC50 (H2405 cells) [µM] | Compound | IC50 (WM3629 cells) [µM]
10 | 0.5 to 1 |  |  | COC(=O)Nc1cc(-c2cccc(-c3cc(NC(=O)NCCC(C)(C)OC)c(F)cc3C)c2)ccn1 [Example 85] | 
11 | 1 to 10 |  |  | Cc1cc(F)c(NC(=O)N[C@@H]2CC[C@H](F)C2)cc1-c1cc(OCCO)nc(-c2ccnc3[nH]ncc23)c1 [Example 88] | 
12 | 1 to 10 |  |  | Cc1cc(F)c(NC(=O)N2CCC(C)(C#N)CC2)cc1-c1cc(OCCO)nc(-c2ccnc3[nH]ncc23)c1 [Example 92] | 
13 |  | 0.1 to 0.5 | 0.1 to 0.5 | CNC(=O)c1cc(-c2cc(-c3cc(NC(=O)N4CC[C@H](C(F)(F)F)C4)ccc3C)ccn2)ccn1 [Example 215] | ≤ 0.1
14 |  | ≤ 0.1 | 1 to 10 | Cc1ccc(NC(=O)N2CC[C@H](C)C2)cc1-c1cncc(-c2cc(NC(=O)C3CC3)ncn2)c1 [Example 227] | 
15 |  | 0.1 to 0.5 | 0.1 to 0.5 | CNC(=O)c1cc(-c2cncc(-c3cc(NC(=O)N4CC[C@H](C(F)(F)F)C4)ccc3C)c2)ccn1 [Example 228] | 

From US20230357179A1, “RAF KINASE INHIBITORS AND METHODS OF USE THEREOF” (Deciphera Pharmaceuticals, LLC, priority 2021, published 2023)
